Assay results as given in ChEMBL document CHEMBL1157539, “Thousands of chemical starting points for antimalarial lead identification” (Nature, 2010).

These compounds were tested on Plasmodium falciparum (assay: GSK_TCMDC: Inhibition of Plasmodium falciparum 3D7 in whole erythrocytes, using parasite LDH activity as an index of growth.). Conditions: Plasmodium falciparum, 3D7.
Assay type: functional, organism-based

**Q.** CN(C)CCOc1ccc2c(=O)cc(CCc3cccc(F)c3F)n(CC(=O)N(C)Cc3ccc(-c4ccc(C(F)(F)F)cc4)cc3)c2c1 was tested. Which XC50 did it give?
**A.** Its XC50 is 1200 nM.

**Q.** With O=C(/C=C/c1ccc(Cl)c(Cl)c1)NCCCCCN1CCCN(C(=O)Nc2ccc(Cl)c(C(F)(F)F)c2)CC1 as the compound, how does the XC50 read?
**A.** Its XC50 is 730 nM.

**Q.** With N=C(N)c1ccc(-c2cc(-c3cccc(C(=N)N)c3)on2)cc1 as the compound, how does the XC50 read?
**A.** The XC50 was 13.8 nM.

**Q.** Which XC50 does the source give for CCCCCCCCc1c(C)[nH]c(C)c(Cl)c1=O here?
**A.** The XC50 was 229 nM.

**Q.** For Cc1cccc2nc(-c3cccc(-c4cccc(CNCc5cccc(N)c5)c4)c3)[nH]c12, which XC50 is on record?
**A.** Its XC50 is 543 nM.

**Q.** How did the XC50 turn out when CN(CCN(C)C(=O)NCc1ccccc1)C(=O)NCc1ccccc1 was run?
**A.** The XC50 was 930 nM.

**Q.** With CCCOc1cc(O)c(-c2[nH]nc(C)c2Oc2ccccc2)cc1CC as the compound, how does the XC50 read?
**A.** Its XC50 is 1070 nM.

**Q.** For CN(C)c1ccc(-c2ccc(C(=O)NC3CCN(Cc4ccc(F)cc4)CC3)s2)cc1, which XC50 is on record?
**A.** The XC50 was 1050 nM.

**Q.** For O=S(=O)(Nc1ccc(CCN2CCC(N3CCCCC3)CC2)cc1)c1ccccc1C(F)(F)F, which XC50 is on record?
**A.** The XC50 was 1020 nM.

**Q.** For Cc1cc(N2CCCC2)nc(Nc2ccc(NC(=O)c3ccc4c(c3)OCO4)cc2)n1, which XC50 is on record?
**A.** Its XC50 is 815 nM.

**Q.** Which XC50 does the source give for CC1CN(Cc2csc(Nc3ccccc3)n2)CC(C)O1 (configuration not stated) here?
**A.** Its XC50 is 1020 nM.

**Q.** Which XC50 does the source give for CCOc1c(C)cc(C(F)(F)F)cc1CNCCCNc1cc(=O)c2ccccc2[nH]1 here?
**A.** The XC50 was 161 nM.

**Q.** COc1ccc2nccc([C@@H](O)CN3CCC(NCc4cc5oc(=O)[nH]c5cc4F)CC3)c2c1 was tested. Which XC50 did it give?
**A.** Its XC50 is 774 nM.

**Q.** Cc1ccn2cc(-c3ccc(NC(=O)c4ccc(Br)o4)cc3)nc2c1 was tested. Which XC50 did it give?
**A.** The XC50 was 741 nM.

**Q.** Which XC50 does the source give for O=C(Nc1ccnc(N2CC3CC2CN3Cc2cccc(O)c2)c1)c1ccc(F)cc1 (configuration not stated) here?
**A.** Its XC50 is 1240 nM.

**Q.** Which XC50 does the source give for c1ccc(-n2cncn2)cc1 here?
**A.** Its XC50 is 591 nM.

**Q.** COc1ccccc1N1CCN(CCCCNC(=O)c2ccc(NC(=O)c3ccc4ccccc4c3)cc2)CC1 was tested. Which XC50 did it give?
**A.** Its XC50 is 800 nM.

**Q.** How did the XC50 turn out when Cc1nc2nc(N)nc(N)c2c(C)c1Cc1ccc(C(N)=O)cc1 was run?
**A.** The XC50 was 530 nM.

**Q.** With CCc1cc2c(Sc3nc4ccccc4[nH]3)ncnc2s1 as the compound, how does the XC50 read?
**A.** Its XC50 is 823 nM.

**Q.** With N#Cc1ccc2[nH]c(-c3ccccc3)nc2c1 as the compound, how does the XC50 read?
**A.** Its XC50 is 698 nM.

**Q.** CCOc1cccc(C2c3c(oc4ccccc4c3=O)C(=O)N2CCN(CC)CC)c1 (configuration not stated) was tested. Which XC50 did it give?
**A.** The XC50 was 746 nM.

**Q.** COc1ccc(NC(=O)[C@H](Cc2ccccc2)Nc2cc(C)nc(NCCc3ccccn3)n2)cc1 was tested. Which XC50 did it give?
**A.** Its XC50 is 834 nM.

**Q.** CCn1c(-c2nonc2N)nc2c(-c3cccc(NC(=O)Nc4cccc(C#N)c4)c3)ncc(OCCCN)c21 was tested. Which XC50 did it give?
**A.** The XC50 was 669 nM.

**Q.** How did the XC50 turn out when Cc1[nH]c(C)c(-c2ccc(-c3cc(C(F)(F)F)cc(C(F)(F)F)c3)nc2)c(=O)c1Br was run?
**A.** Its XC50 is 81.4 nM.

**Q.** Which XC50 does the source give for Cc1cccc2nc(-c3cccc(-c4cccc(NC(=O)c5cnn6cccnc56)c4)c3)[nH]c12 here?
**A.** The XC50 was 671 nM.

**Q.** Cc1ccc(Nc2ccnc3cc(-c4nccs4)ccc23)cc1C(O)c1ccccc1 (configuration not stated) was tested. Which XC50 did it give?
**A.** Its XC50 is 735 nM.

**Q.** How did the XC50 turn out when O=C(Nc1ccc2ccccc2n1)c1ccccc1-c1ccccc1 was run?
**A.** The XC50 was 438 nM.

**Q.** For CC(C)NCc1ccc(OCc2cccc(COc3ccc(CNC(C)C)cc3I)c2)c(I)c1, which XC50 is on record?
**A.** The XC50 was 92 nM.

**Q.** CN(C)CCOc1ccc(-c2cc(-c3ccnc(N)n3)c(-c3ccc(Cl)c(O)c3)o2)cc1 was tested. Which XC50 did it give?
**A.** Its XC50 is 978 nM.

**Q.** How did the XC50 turn out when CC[C@H]1CN2CC[C@H]1C[C@@H]2[C@@H](O)c1ccnc2ccc(OC)cc12 was run?
**A.** The XC50 was 119 nM.

**Q.** Which XC50 does the source give for CC1CN(Cc2cccc(C#N)c2)CCN1c1ccc(NC(=O)c2cccs2)cc1 (configuration not stated) here?
**A.** Its XC50 is 675 nM.

**Q.** Which XC50 does the source give for COc1cccc(Nc2nc(C)cc(NCc3ccc(-n4ccnc4)cc3)n2)c1 here?
**A.** The XC50 was 958 nM.

**Q.** For COc1ccc(CN(C)CCCSc2ccc(NC(=O)c3cccc4c(=O)cc(-c5ccccc5)[nH]c34)cc2)cc1OC, which XC50 is on record?
**A.** The XC50 was 920 nM.

**Q.** Which XC50 does the source give for COc1ccc(-c2cccc(NC(=O)c3cccc(Cl)c3)c2)cc1CN1CCC(O)CC1 here?
**A.** The XC50 was 791 nM.

**Q.** For CN1CCC(NCc2ccc(-c3ccc(S(=O)(=O)NCc4ccccc4)s3)cc2)CC1, which XC50 is on record?
**A.** The XC50 was 765 nM.

**Q.** With COc1ccc(-c2ccc3c(-c4cccc(S(C)(=O)=O)c4)cnc(N)c3c2)cc1 as the compound, how does the XC50 read?
**A.** The XC50 was 1330 nM.

**Q.** Which XC50 does the source give for CCCC(C)Nc1nc(C)cc(NCCC(=O)Nc2ccc(OC)cc2)n1 (configuration not stated) here?
**A.** Its XC50 is 1380 nM.

**Q.** With CN(C)C(CNC(=O)c1cc(-c2ccncc2)c(-c2ccc(NC(=O)Nc3ccccc3)cc2)o1)c1ccccc1 (configuration not stated) as the compound, how does the XC50 read?
**A.** The XC50 was 603 nM.

**Q.** With COc1cccc(Cc2c(C)nc3nc(N)nc(N)c3c2C)c1 as the compound, how does the XC50 read?
**A.** Its XC50 is 879 nM.

**Q.** For CS(=O)(=O)CCNCc1ccc(-c2ccc3c(Nc4ccc(Cl)cc4F)ccnc3c2)o1, which XC50 is on record?
**A.** The XC50 was 668 nM.

**Q.** Which XC50 does the source give for Cc1cc(-c2ccc(NC(=O)N3CCc4cc(Cl)c(N5CCN(C)CC5)cc43)cc2)ccc1C#N here?
**A.** The XC50 was 589 nM.

**Q.** How did the XC50 turn out when CC(C)c1nc(N2CCN(C(=S)NCc3ccccc3)CC2)c(C#N)c2c1COC(C)(C)C2 was run?
**A.** The XC50 was 142 nM.

**Q.** With Cc1cc(NCCC(=O)NCCc2ccccc2)nc(NCCc2ccc(F)cc2)n1 as the compound, how does the XC50 read?
**A.** The XC50 was 1080 nM.

**Q.** For C#Cc1cccc(NC(=O)[C@H](CC2CCCCC2)Nc2ccc(C#N)c3ccccc23)c1, which XC50 is on record?
**A.** Its XC50 is 588 nM.

**Q.** How did the XC50 turn out when CCCc1cc(Cc2cnc(N)nc2N)ccc1OCCCCCC(=O)O was run?
**A.** Its XC50 is 577 nM.

**Q.** How did the XC50 turn out when CCOC(=O)c1nc(-c2cccnc2)[nH]c1NC(=S)NCc1ccccc1 was run?
**A.** Its XC50 is 711 nM.

**Q.** CN1CCN(Cc2ccc(-c3ccc4c(Nc5ccc(Cl)cc5F)ccnc4c3)o2)CC1 was tested. Which XC50 did it give?
**A.** Its XC50 is 155 nM.

**Q.** How did the XC50 turn out when CN(C)C(=S)N/N=C1/C(=O)Nc2ccccc21 was run?
**A.** The XC50 was 1050 nM.

**Q.** With CCOc1ccccc1N1CCN(CCCNC(=O)/C(=C/C=C/c2cc3cc(Cl)c(Cl)cc3[nH]2)OC)CC1 as the compound, how does the XC50 read?
**A.** Its XC50 is 851 nM.

**Q.** CN(C)CCOc1ccc(-n2c(-c3nonc3N)nc3cncc(-c4ccc(F)cc4)c32)cc1 was tested. Which XC50 did it give?
**A.** The XC50 was 866 nM.

**Q.** How did the XC50 turn out when COCCNC(=O)c1ccc(OC2CCN(CC(C)=Cc3ccccc3)CC2)c(Cl)c1 was run?
**A.** Its XC50 is 652 nM.

**Q.** With C[C@@H](CC1CCCCC1)OC(=O)N(C)[C@@H]1CCN(C#N)C1 as the compound, how does the XC50 read?
**A.** The XC50 was 621 nM.

**Q.** Which XC50 does the source give for COCCNCc1ncsc1-c1ccc2c(Nc3cc(O)ccc3C)ccnc2c1 here?
**A.** Its XC50 is 705 nM.

**Q.** Cc1cc(Nc2ccc(C)c(C)c2)n2nc(C)nc2n1 was tested. Which XC50 did it give?
**A.** Its XC50 is 599 nM.

**Q.** With NC1CCCN(Cc2ccc(-c3cccc(-c4nc5cc(F)ccc5[nH]4)c3)cc2)C1 (configuration not stated) as the compound, how does the XC50 read?
**A.** Its XC50 is 640 nM.

**Q.** How did the XC50 turn out when CC1(C)N=C(N)N=C(N)N1c1cccc(I)c1 was run?
**A.** Its XC50 is 126 nM.

**Q.** For O=C(Nc1cccc(C(F)(F)F)c1)Nc1nc2ccc([N+](=O)[O-])cc2s1, which XC50 is on record?
**A.** The XC50 was 687 nM.

**Q.** For O=C(NC1CCCCC1)N(Cc1ccc(-c2ccc(CNCc3ccc4c(c3)OCO4)cc2)cc1)C1CCN(Cc2ccccc2)CC1, which XC50 is on record?
**A.** Its XC50 is 690 nM.

**Q.** Which XC50 does the source give for Cn1nccc1C(=O)NCCNCc1ccc(-c2ccc(-c3nc4cc(F)ccc4[nH]3)cc2)cc1 here?
**A.** Its XC50 is 297 nM.

**Q.** How did the XC50 turn out when CCCCOc1ccc(CNCCCCCCNCc2ccc(OCCCC)c3ccccc23)c2ccccc12 was run?
**A.** The XC50 was 1130 nM.

**Q.** For Cc1ccc(C(=O)Nc2cccc([N+](=O)[O-])c2)cc1S(=O)(=O)N1CC(C)CC(C)C1 (configuration not stated), which XC50 is on record?
**A.** The XC50 was 794 nM.

**Q.** For Cc1cc(N(C)C)nc(Nc2ccc(NC(=O)c3ccc(Br)o3)cc2)n1, which XC50 is on record?
**A.** The XC50 was 1050 nM.

**Q.** With COc1cc(OC)cc(-c2nn(-c3ccc([N+](=O)[O-])cc3Cl)c(=S)n2CC2CCCO2)c1 (configuration not stated) as the compound, how does the XC50 read?
**A.** Its XC50 is 961 nM.

**Q.** For CCC[C@@H]([C@@H](CC1CCCCC1)C(=O)N[C@@H](CCOC(=O)NCC)C(=O)Nc1nccs1)N(O)C=O, which XC50 is on record?
**A.** The XC50 was 81.8 nM.

**Q.** For Cc1c(S(=O)(=O)Nc2ccc3nccc(N4CC(C)NC(C)C4)c3c2)sc2ccc(Cl)cc12 (configuration not stated), which XC50 is on record?
**A.** Its XC50 is 1020 nM.

**Q.** Which XC50 does the source give for COc1ccc(-c2cccc(NC(=O)c3ccc(Cl)cc3)c2)cc1CN1CCCC1 here?
**A.** The XC50 was 778 nM.

**Q.** Which XC50 does the source give for Cc1cccc2nc(-c3ccc(-c4ccc(CNCCc5ccncc5)cc4)cc3)[nH]c12 here?
**A.** The XC50 was 208 nM.

**Q.** How did the XC50 turn out when CC(C)(C)c1ccccc1OCCCON1C(=N)N=C(N)NC1(C)C was run?
**A.** Its XC50 is 3.2 nM.

**Q.** With N=C1NC(=N)N(OCCCCCCON2C(=N)NC(=N)NC2C=Cc2ccccc2)C(C=Cc2ccccc2)N1 (configuration not stated) as the compound, how does the XC50 read?
**A.** The XC50 was 615 nM.

**Q.** CC(C)Cc1cn(-c2nc(-c3nc4ccccc4[nH]3)cs2)c2cc(Cl)ccc12 was tested. Which XC50 did it give?
**A.** Its XC50 is 483 nM.

**Q.** How did the XC50 turn out when O=C(Nc1cccc([N+](=O)[O-])c1)N(Cc1ccc(Cl)c(Cl)c1)C1CCNCC1 was run?
**A.** The XC50 was 719 nM.

**Q.** How did the XC50 turn out when NC(=O)c1ccc(NCC(=O)Nc2cccc(-c3cccc(-c4nc5cc(F)ccc5[nH]4)c3)c2)cc1 was run?
**A.** Its XC50 is 867 nM.
